Measurements as given in ChEMBL document CHEMBL1201862, “PubChem BioAssay data set” (2004).
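Briefly, cells in 96-well plates were exposed to five compound concentrations for 48 h, and endpoints were estimated by linear interpolation. GI50 is the concentration that inhibits growth by half.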 Activity calls are given as the source filed them. No stated cut-off is given here; in the data, active = GI50 up to about 1.1 µM and inactive = higher.

Key:
Assay in all cases: DTP human tumour cell line panel, 48 h
[1] = test system: NCI-H522
[2] = test system: A498
[3] = test system: UACC-62
[4] = test system: HOP-62
[5] = test system: NCI-H460
[6] = test system: CAKI-1
[7] = test system: BT-549
[8] = test system: IGROV-1
[9] = test system: NCI-H23
[10] = test system: K562
[11] = test system: LOX IMVI
[12] = test system: MDA-N
[13] = test system: SF-295
[14] = test system: SK-MEL-5
[15] = test system: DU-145
[16] = test system: HOP-92
[17] = test system: TK-10
[18] = test system: U-251
[19] = test system: MOLT-4
[20] = test system: RPMI-8226
[21] = test system: COLO 205
[22] = test system: SW-620
[23] = test system: 786-0
[24] = test system: SF-268
[25] = test system: KM12
[26] = test system: NCI/ADR-RES
[27] = test system: NCI-H226
[28] = test system: MDA-MB-231
[29] = test system: UACC-257
[30] = test system: Hs-578T
[31] = test system: ACHN
[32] = test system: SK-MEL-2
[33] = test system: OVCAR-8
[34] = test system: SK-MEL-28
[35] = test system: A549
[36] = test system: SR
[37] = test system: PC-3
[38] = test system: EKVX
[39] = test system: RXF 393
[40] = test system: SNB-19
[41] = test system: T47D
[42] = test system: HT-29
[43] = test system: CCRF-CEM
[44] = test system: MCF7
[45] = test system: HL-60
[46] = test system: SF-539
[47] = test system: SN12C
[48] = test system: M14
[49] = test system: HCT-15
[50] = test system: OVCAR-5
[51] = test system: UO-31
[52] = test system: Malme-3M
[53] = test system: SK-OV-3
[54] = test system: OVCAR-4
[55] = test system: OVCAR-3
[56] = test system: MDA-MB-435
[57] = test system: HCC 2998
[58] = test system: SNB-75
[59] = test system: HCT-116

## COc1c2c(nc3ccccc13)-c1cc(C(CC(=O)OC(C)(C)C)C(=O)OC(C)C)c(CO)c(=O)n1C2 (stereo not drawn)
[1]
  GI50: 37.6 µM (inactive)
[2]
  GI50: 57.3 µM (inactive)
[3]
  GI50: 17.8 µM (inactive)
[4]
  GI50: 24.9 µM (inactive)
[5]
  GI50: 10.4 µM (inactive)
[6]
  GI50: 4.22 µM (inactive)
[7]
  GI50: > 66.4 µM (inactive)
[8]
  GI50: 47.4 µM (inactive)
[9]
  GI50: 55.7 µM (inactive)
[10]
  GI50: 33.6 µM (inactive)
[11]
  GI50: 32.4 µM (inactive)
[12]
  GI50: > 100 µM (inactive)
[13]
  GI50: 29.2 µM (inactive)
[14]
  GI50: 43.5 µM (inactive)
[15]
  GI50: 22.2 µM (inactive)
[16]
  GI50: 40 µM (inactive)
[17]
  GI50: > 100 µM (inactive)
[18]
  GI50: 42.5 µM (inactive)
[19]
  GI50: 3.67 µM (inactive)
[20]
  GI50: 21.3 µM (inactive)
[21]
  GI50: 88.5 µM (inactive)
[22]
  GI50: > 96.6 µM (inactive)
[23]
  GI50: 30.5 µM (inactive)
[24]
  GI50: > 62.8 µM (inactive)
[25]
  GI50: > 100 µM (inactive)
[26]
  GI50: 24.5 µM (inactive)
[27]
  GI50: 67.8 µM (inactive)
[28]
  GI50: > 100 µM (inactive)
[29]
  GI50: > 100 µM (inactive)
[30]
  GI50: > 75.3 µM (inactive)
[31]
  GI50: 21.9 µM (inactive)
[32]
  GI50: > 100 µM (inactive)
[33]
  GI50: 71.1 µM (inactive)
[34]
  GI50: > 73.8 µM (inactive)
[35]
  GI50: 52.8 µM (inactive)
[36]
  GI50: 5.62 µM (inactive)
[37]
  GI50: > 86.1 µM (inactive)
[38]
  GI50: > 100 µM (inactive)
[39]
  GI50: > 100 µM (inactive)
[40]
  GI50: 53.8 µM (inactive)
[41]
  GI50: 22.1 µM (inactive)
[42]
  GI50: 58.5 µM (inactive)
[43]
  GI50: 4.48 µM (inactive)
[44]
  GI50: 6.85 µM (inactive)
[45]
  GI50: > 25.2 µM (inactive)
[46]
  GI50: 36.9 µM (inactive)
[47]
  GI50: 45.8 µM (inactive)
[48]
  GI50: 39 µM (inactive)
[49]
  GI50: > 78.2 µM
[50]
  GI50: 98.6 µM (inactive)
[51]
  GI50: > 36.7 µM (inactive)
[52]
  GI50: > 100 µM (inactive)
[53]
  GI50: > 40.2 µM (inactive)
[54]
  GI50: > 70.5 µM (inactive)
[55]
  GI50: > 100 µM (inactive)
[56]
  GI50: > 94.2 µM (inactive)
[57]
  GI50: > 100 µM (inactive)
[58]
  GI50: > 93.8 µM (inactive)
[59]
  GI50: 37 µM (inactive)

## NC(C(=O)O)c1cc(O)no1 (stereo not drawn)
[1]
  GI50: > 100 µM (inactive)
[2]
  GI50: > 100 µM (inactive)
[3]
  GI50: > 100 µM (inactive)
[4]
  GI50: > 100 µM (inactive)
[5]
  GI50: > 100 µM (inactive)
[6]
  GI50: > 100 µM (inactive)
[7]
  GI50: > 42.5 µM (inactive)
[8]
  GI50: > 100 µM (inactive)
[9]
  GI50: > 100 µM (inactive)
[10]
  GI50: > 100 µM (inactive)
[11]
  GI50: > 100 µM (inactive)
[12]
  GI50: > 100 µM (inactive)
[13]
  GI50: > 100 µM (inactive)
[14]
  GI50: > 100 µM (inactive)
[15]
  GI50: > 100 µM (inactive)
[16]
  GI50: > 100 µM (inactive)
[17]
  GI50: > 100 µM (inactive)
[18]
  GI50: > 100 µM (inactive)
[19]
  GI50: > 100 µM (inactive)
[20]
  GI50: > 100 µM (inactive)
[21]
  GI50: > 100 µM (inactive)
[22]
  GI50: > 100 µM (inactive)
[23]
  GI50: > 100 µM (inactive)
[24]
  GI50: > 100 µM (inactive)
[25]
  GI50: > 100 µM (inactive)
[26]
  GI50: > 100 µM (inactive)
[27]
  GI50: > 100 µM (inactive)
[28]
  GI50: > 100 µM (inactive)
[29]
  GI50: > 100 µM (inactive)
[30]
  GI50: > 100 µM (inactive)
[31]
  GI50: > 100 µM (inactive)
[32]
  GI50: > 100 µM (inactive)
[33]
  GI50: > 100 µM (inactive)
[34]
  GI50: > 100 µM (inactive)
[35]
  GI50: > 100 µM (inactive)
[36]
  GI50: > 100 µM (inactive)
[37]
  GI50: > 100 µM (inactive)
[38]
  GI50: > 100 µM (inactive)
[39]
  GI50: > 100 µM (inactive)
[40]
  GI50: > 100 µM (inactive)
[41]
  GI50: > 100 µM (inactive)
[42]
  GI50: > 100 µM (inactive)
[43]
  GI50: > 100 µM (inactive)
[44]
  GI50: > 100 µM (inactive)
[45]
  GI50: > 60 µM (inactive)
[46]
  GI50: > 100 µM (inactive)
[47]
  GI50: > 100 µM (inactive)
[48]
  GI50: > 100 µM (inactive)
[49]
  GI50: > 100 µM
[50]
  GI50: > 100 µM (inactive)
[51]
  GI50: > 100 µM (inactive)
[52]
  GI50: > 100 µM (inactive)
[53]
  GI50: > 100 µM (inactive)
[54]
  GI50: > 100 µM (inactive)
[55]
  GI50: > 100 µM (inactive)
[56]
  GI50: > 100 µM (inactive)
[57]
  GI50: > 100 µM (inactive)
[58]
  GI50: > 100 µM (inactive)
[59]
  GI50: > 100 µM (inactive)
